Assay [1] deals with T1, Tyrosine-protein phosphatase non-receptor type 1 (Homo sapiens) (UniProt P18031).
T1 sequence (whole entry): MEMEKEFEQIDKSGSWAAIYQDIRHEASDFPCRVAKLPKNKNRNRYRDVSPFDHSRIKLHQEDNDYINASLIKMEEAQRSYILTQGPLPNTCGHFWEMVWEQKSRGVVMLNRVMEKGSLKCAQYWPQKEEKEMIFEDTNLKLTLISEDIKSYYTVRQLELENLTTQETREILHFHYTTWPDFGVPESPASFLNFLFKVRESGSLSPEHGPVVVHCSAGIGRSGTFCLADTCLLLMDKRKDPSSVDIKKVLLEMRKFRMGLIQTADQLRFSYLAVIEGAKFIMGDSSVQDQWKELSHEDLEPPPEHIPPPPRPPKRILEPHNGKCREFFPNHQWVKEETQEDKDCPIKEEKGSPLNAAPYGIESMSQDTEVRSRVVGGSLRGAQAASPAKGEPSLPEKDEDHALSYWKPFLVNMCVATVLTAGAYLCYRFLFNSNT
The assay is described as follows: Inhibition of PTP1B (unknown origin) using para-nitro phenyl phosphate as substrate at 10 uM after 30 mins.

For assay [2], the target named is T1, Tyrosine-protein phosphatase non-receptor type 1 (Homo sapiens). The assay can be described thus: Inhibition of PTP1B (unknown origin) using para-nitro phenyl phosphate as substrate at 30 uM after 30 mins.
For assay [3], the target named is Tyrosine-protein phosphatase non-receptor type 1 (Homo sapiens) (UniProt P18031). The assay can be described thus: Inhibition of PTP1B (unknown origin) using para-nitro phenyl phosphate as substrate at 20 uM after 30 mins.

As usually defined, the inhibition is the relative decrease from the control value, in per cent. On to `CO[C@@H]1O[C@@]23C=C[C@@H]4[C@]1(CC[C@@]1(C)[C@@H]([C@@H](C)C[C@H](C=C(C)C)OC)CC[C@]41C)[C@@H]2CC[C@H](O)C3(C)C`, for which the results for the inhibition in assay [1] and in assay [2] were 44% and 62%, respectively.
`CO[C@H]1O[C@@]23C=C[C@@H]4[C@]1(CC[C@@]1(C)[C@@H]([C@@H](C)C[C@H](C=C(C)C)OC)CC[C@]41C)[C@@H]2CC[C@H](O)C3(C)C`: the inhibition was 57% in assay [1] and 77% in assay [2].
The corresponding values for `C=C(C)/C=C/C[C@@H](C)[C@H]1CC[C@@]2(C)[C@@H]3C=C[C@@]45O[C@@H](O)[C@]3(CC[C@]12C)[C@@H]4CC[C@H](O)C5(C)C` are 44% and 68%.
On the same counts, the results for `CO[C@@H]1O[C@]23C=C[C@@H]4[C@@]1(CC[C@]1(C)[C@@H]([C@H](C)C/C=C/C(C)(C)OC)CC[C@@]41C)[C@@H]2CC[C@H](O)C3(C)C` are 22% and 37%.
Regarding `CO[C@H]1O[C@]23C=C[C@@H]4[C@@]1(CC[C@]1(C)[C@@H]([C@H](C)C[C@H](C=C(C)C)OC)CC[C@@]41C)[C@@H]2CC[C@H](O)C3(C)C`, the inhibition in assay [1] is 32%; in assay [2], 62%.
`C[C@H](C/C=C/C(C)(C)O)[C@H]1CC[C@@]2(C)[C@@H]3C=C[C@@]45OC[C@]3(CC[C@]12C)[C@@H]4CC[C@H](O)C5(C)C`: the inhibition turned out to be 30% in assay [1] and 52% in assay [2].
As for SODIUM ORTHOVANAD, the inhibition in assay [3] came to 44%.
For `C[C@H](C/C=C/C(C)(C)O)[C@H]1CC[C@@]2(C)[C@@H]3[C@@H](O)C=C4[C@@H](CC[C@H](O)C4(C)C)[C@]3(C=O)CC[C@]12C`, the inhibition in assay [1] is -5%.
Take `CO[C@@H]1O[C@]23C=C[C@@H]4[C@@]1(CC[C@]1(C)[C@@H]([C@H](C)C/C=C/C(C)(C)O)CC[C@@]41C)[C@@H]2CC[C@H](O)C3(C)C`: in assay [1], the inhibition was -7%.
In the case of `CO[C@@H]1O[C@]23C=C[C@@H]4[C@@]1(CC[C@]1(C)[C@@H]([C@H](C)C[C@H](C=C(C)C)OC)CC[C@@]41C)[C@@H]2CC[C@H](O)C3(C)C`, the inhibition in assay [1] was 32%; in assay [2], 40%.
On to `C=C(C)/C=C/C[C@@H](C)[C@H]1CC[C@@]2(C)[C@@H]3C=C[C@@]45O[C@@H](OC)[C@]3(CC[C@]12C)[C@@H]4CC[C@H](O)C5(C)C`, for which the inhibition in assay [1] was determined as 41%; in assay [2], 60%.

For the origin of these results see ChEMBL document CHEMBL3259580, “New compounds from acid hydrolyzed products of the fruits of Momordica charantia L. and their inhibitory activity against protein tyrosine phosphatas 1B” (Eur J Med Chem, 2014).
